Measurements from patent US11572590B2, “Methods for evaluating tumor cell spheroids using 3D microfluidic cell culture device” (Dana-Farber Cancer Institute, Inc., priority 2017, dated 2023).

Key:
MC38 MDOTS = assay: Live/dead (AO/PI) imaging of MC38 MDOTS in 3D microfluidic culture; type: cell-based, murine; conditions: Cmpd1 (1 μM) + αPD-1; did not reach significance vs single-agent PD-1
Experimental: Fresh tumor specimens (murine and human patients) were received in media (DMEM) on ice and minced in a 10 cm dish (on ice) using sterile forceps and scalpel. Minced tumor was resuspended in DMEM ([…], […] sodium pyruvate, 1:100 penicillin-streptomycin) (Corning CellGro, Manassas, Va.) +10% FBS (Gemini Bio-Products, West Sacramento, Calif.), 100 U/mL collagenase type IV (Life Technologies, Carlsbad, Calif.), and 15 mM HEPES (Life Technologies, Carlsbad, Calif.), except for CT26 tumors that were prepared in RPMI. Samples were pelleted and resuspended in 10-20 mL media. Red blood cells were removed from visibly bloody samples using RBC Lysis Buffer (Boston Bio-Products, Ashland, Mass.). […]
Dual labeling was performed by loading microfluidic device with Nexcelom ViaStain™ AO/PI Staining Solution (Nexcelom, CS2-0106). Following incubation with the dyes (20 minutes at room temperature in the dark), images were captured on a Nikon Eclipse 80i fluorescence microscope equipped with Z-stack (Prior) and CoolSNAP CCD camera (Roper Scientific). […] Live and dead cell quantitation was performed by measuring total cell area of each dye. […]

MB49 allograft = assay: MB49 allograft, Compound 1 and anti-PD-L1 combination in vivo; set-up: species or system mouse; conditions: Cmpd1 + αPD-L1

`N#Cc1cc(-c2ncnc(Nc3ccc(N4CCN(C5COC5)CC4)cc3)n2)ccc1OC1CCOCC1` [Compound 1, 5-(4-((4-(4-(oxetan-3-yl)piperazin-1-yl)phenyl)amino)-1,3,5-triazin-2-yl)-2-((tetrahydro-2H-pyran-4-yl)oxy)benzonitrile] was tested, and the “ex vivo killing of MC38 MDOTS, combination treatment” value (MC38 MDOTS) was “enhanced ex vivo killing” and the “response to combination treatment in vivo, MB49 bladder carcinoma model” value (MB49 allograft) was “enhanced response”.
